Experiments:
[1] = tested on: Pyrenophora teres; assay: Pyrenophora teres / barley / leaf disc preventative (net blotch); format: in vivo; details: foliar, barley leaf segments, inoculated 2 days after application
Protocol: Example B14: Pyrenophora teres/Barley/Leaf Disc Preventative (Net Blotch) Barley leaf segments cv. Hasso are placed on agar in a multiwell plate (24-well format) and sprayed with the formulated test compound diluted in water. The leaf segments are inoculated with a spore suspension of the fungus 2 days after application. The inoculated leaf segments are incubated at 20° C. and 65% rh under a light regime of 12 h light/12 h darkness in a climate cabinet and the activity of a compound is assessed as disease control compared to untreated when an appropriate level of disease damage appears in untreated check leaf segments (5-7 days after application).

[2] = tested on: Monographella nivalis (Microdochium nivale); assay: Monographella nivalis (Microdochium nivale) / liquid culture (foot rot cereals); format: cell-based; details: growth inhibition photometrically 4-5 days after application, read-out: control of Monographella nivalis
Protocol: (§1) Example B9: Monographella nivalis (Microdochium nivale)/Liquid Culture (Foot Rot Cereals) Conidia of the fungus from cryogenic storage are directly mixed into nutrient broth (PDB potato dextrose broth). After placing a (DMSO) solution of test compound into a microtiter plate (96-well format), the nutrient broth containing the fungal spores is added. The test plates are incubated at 24° C. and the inhibition of growth is determined photometrically 4-5 days after application.

[3] = tested on: Mycosphaerella graminicola (Septoria tritici); assay: Mycosphaerella graminicola (Septoria tritici) / liquid culture (Septoria blotch); format: cell-based; details: Zymoseptoria tritici, growth inhibition photometrically 4-5 days after application, read-out: control of Mycosphaerella graminicola
Protocol: as §1, with “B16: Mycosphaerella graminicola (Septoria tritici)/Liquid” for “B9: Monographella nivalis (Microdochium nivale)/Liquid”, “(Septoria Blotch)” for “(Foot Rot Cereals)”

[4] = tested on: Botryotinia fuckeliana (Botrytis cinerea); assay: Botryotinia fuckeliana (Botrytis cinerea) / liquid culture (gray mould); format: cell-based; details: growth inhibition photometrically 3-4 days after application, read-out: control of Botryotinia fuckeliana
Protocol: as §1, with “B2: Botryotinia fuckeliana (Botrytis cinerea)/Liquid” for “B9: Monographella nivalis (Microdochium nivale)/Liquid”, “(Gray Mould)” for “(Foot Rot Cereals)”, “(Vogels” for “(PDB potato dextrose”, “3-4” for “4-5”

[5] = tested on: Glomerella lagenarium (Colletotrichum lagenarium); assay: Glomerella lagenarium (Colletotrichum lagenarium) / liquid culture (anthracnose); format: cell-based; details: Colletotrichum orbiculare, growth inhibition photometrically 3-4 days after application, read-out: control of Glomerella lagenarium
Protocol: as §1, with “B3: Glomerella lagenarium (Colletotrichum lagenarium)/Liquid” for “B9: Monographella nivalis (Microdochium nivale)/Liquid”, “(Anthracnose)” for “(Foot Rot Cereals)”, “measured” for “determined”, “3-4” for “4-5”

[6] = tested on: Alternaria solani; assay: Alternaria solani / tomato / leaf disc (early blight); format: in vivo; details: foliar, tomato leaf disks, sprayed 2 days before inoculation, compared to untreated control
Protocol: Example B1: Alternaria solani/Tomato/Leaf Disc (Early Blight) Tomato leaf disks cv. Baby are placed on agar in multiwell plates (24-well format) and sprayed with the formulated test compound diluted in water. The leaf disks are inoculated with a spore suspension of the fungus 2 days after application. The inoculated leaf disks are incubated at 23° C./21° C.

[7] = tested on: Mycosphaerella arachidis (Cercospora arachidicola); assay: Mycosphaerella arachidis (Cercospora arachidicola) / liquid culture (early leaf spot); format: cell-based; details: growth inhibition photometrically 4-5 days after application, read-out: control of Mycosphaerella arachidis
Protocol: as §1, with “B10: Mycosphaerella arachidis (Cercospora arachidicola)/Liquid” for “B9: Monographella nivalis (Microdochium nivale)/Liquid”, “(Early Leaf Spot)” for “(Foot Rot Cereals)”

[8] = tested on: Blumeria graminis f. sp. tritici (Erysiphe graminis f. sp. tritici); assay: Blumeria graminis f. sp. tritici / wheat / leaf disc preventative (powdery mildew on wheat); format: in vivo; details: foliar, wheat leaf segments, inoculated 1 day after application
Protocol: Example B4: Blumeria graminis f. Sp. Tritici (Erysiphe graminis f. Sp. Tritici)/Wheat/Leaf Disc Preventative (Powdery Mildew on Wheat) Wheat leaf segments cv. Kanzler are placed on agar in a multiwell plate (24-well format) and sprayed with the formulated test compound diluted in water. The leaf disks are inoculated by shaking powdery mildew infected plants above the test plates 1 day after application. The inoculated leaf disks are incubated at 20° C. and 60% rh under a light regime of 24 h darkness followed by 12 h light/12 h darkness in a climate chamber and the activity of a compound is assessed as percent disease control compared to untreated when an appropriate level of disease damage appears on untreated check leaf segments (6-8 days after application).

Cn1cc(C(C)(CNC(=O)c2cc(-c3ccc(F)cc3F)on2)c2ncccc2Cl)cn1 (stereo not shown) [Compound P-2, N-[2-(3-chloro-2-pyridyl)-2-(1-methylpyrazol-4-yl)propyl]-5-(2,4-difluorophenyl) isoxazole-3-carboxamide]
≥ 80%: pest or weed control at 200 ppm [1] | inhibition of growth at 20 ppm [2] | inhibition of growth at 20 ppm [3] | inhibition of growth at 20 ppm [4]

CCS(=O)(=O)c1cccc(C(C)(CNC(=O)c2nnc(-c3ccc(F)cc3F)s2)c2cnn(C)c2)n1 (stereo not shown) [Compound P-3, 5-(2,4-difluorophenyl)-N-[2-(6-ethylsulfonyl-2-pyridyl)-2-(1-methylpyrazol-4-yl)propyl]-1,3,4-thiadiazole-2-carboxamide]
≥ 80%: pest or weed control at 200 ppm [1]

COc1ccnc(C(C)(CNC(=O)c2cc(-c3ccc(F)cc3F)on2)c2cnn(C)c2)c1 (stereo not shown) [Compound P-7, 5-(2,4-difluorophenyl)-N-[2-(4-methoxy-2-pyridyl)-2-(1-methylpyrazol-4-yl)propyl]isoxazole-3-carboxamide]
≥ 80%: inhibition of growth at 20 ppm [2] | inhibition of growth at 20 ppm [5] | pest or weed control at 200 ppm [6] | inhibition of growth at 20 ppm [3]

Cn1cc(C(C)(CNC(=O)c2nnc(-c3ccc(F)cc3F)s2)c2ccc(Cl)cn2)cn1 (stereo not shown) [Compound P-17, N-[2-(5-chloro-2-pyridyl)-2-(1-methylpyrazol-4-yl)propyl]-5-(2,4-difluorophenyl)-1,3,4-thiadiazole-2-carboxamide]
≥ 80%: inhibition of growth at 20 ppm [2] | inhibition of growth at 20 ppm [5] | inhibition of growth at 20 ppm [7] | inhibition of growth at 20 ppm [3]

Cn1cc(C(C)(CNC(=O)c2cc(-c3ccc(F)cc3F)on2)c2ccc(Cl)cn2)cn1 (stereo not shown) [Compound P-20, N-[2-(5-chloro-2-pyridyl)-2-(1-methylpyrazol-4-yl)propyl]-5-(2,4-difluorophenyl) isoxazole-3-carboxamide]
≥ 80%: pest or weed control at 200 ppm [1] | inhibition of growth at 20 ppm [2] | inhibition of growth at 20 ppm [5] | inhibition of growth at 20 ppm [3]

Cn1cc(C(C)(CNC(=O)c2cc(-c3ccc(F)cc3F)on2)c2ccncn2)cn1 (stereo not shown) [Compound P-23, 5-(2,4-difluorophenyl)-N-[2-(1-methylpyrazol-4-yl)-2-pyrimidin-4-yl-propyl]isoxazole-3-carboxamide]
≥ 80%: pest or weed control at 200 ppm [1] | pest or weed control at 200 ppm [6]

CNC(=O)c1cccc(C(C)(CNC(=O)c2cc(-c3ccc(F)cc3F)on2)c2cnn(C)c2)n1 (stereo not shown) [Compound P-45, 5-(2,4-difluorophenyl)-N-[2-[6-(methylcarbamoyl)-2-pyridyl]-2-(1-methylpyrazol-4-lyl)propyl]isoxazole-3-carboxamide]
≥ 80%: pest or weed control at 200 ppm [1]

Cn1cc(C(C)(CNC(=O)c2cc(-c3ccc(F)cc3F)on2)c2cccc(N)n2)cn1 (stereo not shown) [Compound P-50, N-[2-(6-amino-2-pyridyl)-2-(1-methylpyrazol-4-yl)propyl]-5-(2,4-difluorophenyl) isoxazole-3-carboxamide]
≥ 80%: pest or weed control at 200 ppm [1] | inhibition of growth at 20 ppm [2] | inhibition of growth at 20 ppm [5] | inhibition of growth at 20 ppm [7] | inhibition of growth at 20 ppm [3] | inhibition of growth at 20 ppm [4]

CC(=O)Nc1cccc(C(C)(CNC(=O)c2cc(-c3ccc(F)cc3F)on2)c2cnn(C)c2)n1 (stereo not shown) [Compound P-52, N-[2-(6-acetamido-2-pyridyl)-2-(1-methylpyrazol-4-yl)propyl]-5-(2,4-difluorophenyl) isoxazole-3-carboxamide]
≥ 80%: pest or weed control at 200 ppm [1]

Cn1cc(C(C)(CNC(=O)c2cc(-c3ccc(F)cc3F)on2)c2ncccc2Br)cn1 (stereo not shown) [Compound P-53, N-[2-(3-bromo-2-pyridyl)-2-(1-methylpyrazol-4-yl)propyl]-5-(2,4-difluorophenyl) isoxazole-3-carboxamide]
≥ 80%: pest or weed control at 200 ppm [1] | inhibition of growth at 20 ppm [2]

CNC(=O)c1ccc(C(C)(CNC(=O)c2cc(-c3ccc(F)cc3F)on2)c2cnn(C)c2)nc1 (stereo not shown) [Compound P-56, 5-(2,4-difluorophenyl)-N-[2-[5-(methylcarbamoyl)-2-pyridyl]-2-(1-methylpyrazol-4-yl)propyl]isoxazole-3-carboxamide]
≥ 80%: pest or weed control at 200 ppm [1]

CC(=O)Nc1ccc(C(C)(CNC(=O)c2cc(-c3ccc(F)cc3F)on2)c2cnn(C)c2)nc1 (stereo not shown) [Compound P-59, N-[2-(5-acetamido-2-pyridyl)-2-(1-methylpyrazol-4-yl)propyl]-5-(2,4-difluorophenyl) isoxazole-3-carboxamide]
≥ 80%: pest or weed control at 200 ppm [8]

C=C(C)COc1cc(Cl)nc(C(C)(CNC(=O)c2cc(-c3ccc(F)cc3F)on2)c2cnn(C)c2)c1 (stereo not shown) [Compound P-68, N-[2-[6-chloro-4-(2-methylallyloxy)-2-pyridyl]-2-(1-methylpyrazol-4-yl)propyl]-5-(2,4-difluorophenyl) isoxazole-3-carboxamide]
≥ 80%: inhibition of growth at 20 ppm [2] | inhibition of growth at 20 ppm [5] | inhibition of growth at 20 ppm [7] | inhibition of growth at 20 ppm [3] | inhibition of growth at 20 ppm [4]

Cn1cc(C(C)(CNC(=O)c2cc(-c3ccc(F)cc3F)on2)c2ccc(C#N)cn2)cn1 (stereo not shown) [Compound P-75, N-[2-(5-cyano-2-pyridyl)-2-(1-methylpyrazol-4-yl)propyl]-5-(2,4-difluorophenyl) isoxazole-3-carboxamide]
≥ 80%: pest or weed control at 200 ppm [1] | inhibition of growth at 20 ppm [2] | pest or weed control at 200 ppm [6] | inhibition of growth at 20 ppm [3]

Cn1cc(C(C)(CNC(=O)c2cc(C3CC3)on2)c2cccc(Cl)n2)cn1 (stereo not shown) [Compound P-78, N-[2-(6-chloro-2-pyridyl)-2-(1-methylpyrazol-4-yl)propyl]-5-cyclopropyl-isoxazole-3-carboxamide]
≥ 80%: inhibition of growth at 20 ppm [2] | inhibition of growth at 20 ppm [7] | inhibition of growth at 20 ppm [3]

Cn1cc(C(C)(CNC(=O)c2cc(C3CCCCC3)on2)c2cccc(Cl)n2)cn1 (stereo not shown) [Compound P-79, N-[2-(6-chloro-2-pyridyl)-2-(1-methylpyrazol-4-yl)propyl]-5-cyclohexyl-isoxazole-3-carboxamide]
≥ 80%: pest or weed control at 200 ppm [1] | inhibition of growth at 20 ppm [2] | inhibition of growth at 20 ppm [5] | inhibition of growth at 20 ppm [7] | inhibition of growth at 20 ppm [3]

COc1ccc(C(C)(CNC(=O)c2cc(-c3ccc(F)cc3F)on2)c2cnn(C)c2)nn1 (stereo not shown) [Compound P-105, 5-(2,4-difluorophenyl)-N-[2-(6-methoxypyridazin-3-yl)-2-(1-methylpyrazol-4-yl)propyl] isoxazole-3-carboxamide]
≥ 80%: pest or weed control at 200 ppm [1] | pest or weed control at 200 ppm [6]

Cn1ncc(C(CNC(=O)c2cc(-c3ccc(F)cc3F)on2)c2cccc(C#N)n2)c1Cl (stereo not shown) [Compound P-117]
≥ 80%: inhibition of growth at 20 ppm [2] | inhibition of growth at 20 ppm [5] | inhibition of growth at 20 ppm [7] | inhibition of growth at 20 ppm [3] | inhibition of growth at 20 ppm [4]

Reference: US20240343717A1, “MICROBIOCIDAL PYRAZOLE DERIVATIVES” (SYNGENTA CROP PROTECTION AG, priority 2021, published 2024)
